In patent US20260042764A1, “COMPOSITIONS AND METHODS FOR INHIBITION OF KRAS” (TheRas, Inc., priority 2022, published 2026):

Columns and labels:
[1] = target: T1, Avi-KRAS G12D (1-169) GppNHp/RAF1 RBD-3xFLAG (52-151) (Homo sapiens, UniProt P01116, G12D); experiment: Raf1-KRAS G12D-GppNHP disruption HTRF assay (Biological Example 1); format: binding; settings: KRAS G12D, GppNHp-loaded; Table 11
T1 construct: Avi-KRAS G12D (1-169)
Outline: (§1)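 Protein mix, 1 h RT, 700 rpm; reagent mix, 1 h RT, 700 rpm; HTRF read. Buffer Tris pH 7.5/NaCl/MgCl2/BSA/Tween, 10% DMSO. Output % activity, DMSO = 100%.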

[2] = target: T2, Avi-KRAS G12R (1-169) GppNHp/RAF1 RBD-3xFLAG (52-151) (Homo sapiens, UniProt P01116, G12R); experiment: Raf1-KRAS G12R-GppNHP disruption HTRF assay (Biological Example 1); format: binding; settings: KRAS G12R, GppNHp-loaded; Table 11
T2 construct: Avi-KRAS G12R (1-169)
T2 sequence (P01116 1-169 isoform P01116-2 G12R): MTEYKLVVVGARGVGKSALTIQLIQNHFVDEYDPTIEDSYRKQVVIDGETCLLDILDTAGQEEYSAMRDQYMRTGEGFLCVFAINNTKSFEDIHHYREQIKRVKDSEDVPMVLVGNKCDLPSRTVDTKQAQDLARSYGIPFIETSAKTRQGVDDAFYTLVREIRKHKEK
Outline: as §1

[3] = target: T3, Avi-KRAS G12V (1-169) GppNHp/RAF1 RBD-3xFLAG (52-151) (Homo sapiens, UniProt P01116, G12V); experiment: Raf1-KRAS G12V-GppNHP disruption HTRF assay (Biological Example 1); format: binding; settings: KRAS G12V, GppNHp-loaded; Table 11
T3 construct: Avi-KRAS G12V (1-169)
T3 sequence (P01116 1-169 isoform P01116-2 G12V): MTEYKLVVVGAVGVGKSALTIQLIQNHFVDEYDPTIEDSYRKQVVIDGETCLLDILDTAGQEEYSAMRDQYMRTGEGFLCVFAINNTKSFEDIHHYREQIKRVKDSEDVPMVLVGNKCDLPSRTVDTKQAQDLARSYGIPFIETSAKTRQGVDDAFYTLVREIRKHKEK
Outline: as §1

[4] = target: T4, Avi-KRAS WT (1-169) GppNHp/RAF1 RBD-3xFLAG (52-151) (Homo sapiens, UniProt P01116); experiment: Raf1-KRAS WT-GppNHP disruption HTRF assay (Biological Example 1); format: binding; settings: KRAS WT, GppNHp-loaded; Table 11
T4 construct: Avi-KRAS WT (1-169)
T4 sequence (P01116 1-169 isoform P01116-2): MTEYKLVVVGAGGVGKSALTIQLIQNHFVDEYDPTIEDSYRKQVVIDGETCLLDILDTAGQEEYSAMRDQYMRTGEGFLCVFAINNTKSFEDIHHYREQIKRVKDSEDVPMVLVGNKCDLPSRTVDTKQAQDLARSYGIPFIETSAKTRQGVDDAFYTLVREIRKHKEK
Outline: as §1

GP2d cells (KRAS G12D) = experiment: Cell-based pERK HTRF assay in GP2d cell (Biological Example 2); settings: GP2d, GP2d (KRAS G12D) cells
Outline: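 GP2d (KRAS G12D) cells were plated in DMEM/10% FBS and treated the next day for 60 min with compounds. Dosing used 9-point half-log series starting at 1 μM or 100 nM in 0.25% DMSO. Lysates were read by HTRF pERK (d2/Eu cryptate antibodies) after 4–24 h at room temperature, with excitation at 320 nm and emission at 615 nm.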

SW1900 cells (KRAS G12D) = experiment: 3D Cell viability assay in SW1900 cells (Biological Example 6); format: cell-based; settings: Homo sapiens; SW1990 (text: SW1900, KRAS G12D) spheroids, 72 hours
Procedure: (§2) Biological Example 6: 3D Cell viability assay in AsPC-1, SW1900, HPAC, Capan-2, RKN, H358, HCT116, KP-2, H1573, A549, MKN1, and HT1080 cells
(§3) The inhibition of cellular viability as a result of test compound treatment in a spheroid assay was measured using the CellTiter-Glow 3D Cell Viability Assay (Promega).
(§4) On Day 1, 1000 cells per well were seeded in 150 μL of complete growth media supplemented with 10% fetal bovine serum (FBS) and incubated at 37° C., in the presence of 5% CO2 in 96-well ultra-low attachment microplates (Corning) for 48 hours undisturbed to allow spheroids to form.
(§5) Following spheroid formation, cells were treated with compounds diluted in DMSO at 0.25% final DMSO concentration. Compounds were dosed in a 9-point concentration curve with three-fold dilution between concentrations. Cells were incubated in the presence of compound for 72 hours at 37° C., in the presence of 5% CO2.
(§6) Following this incubation period, the kit-provided CTG reagent was allowed to equilibrate for 30 minutes at room temperature, 150 μL of equilibrated CTG reagent was added to each well, and the plate was sealed before shaking at 250 rpm for 10 minutes at room temperature to lyse the cells, 150 μL of lysate per well was transferred to a 96-well plate and luminescence was read on a CLARIOstar plate reader.
(§7) Data was imported into the Prism software package (Graphpad) and EC50 values were calculated using the log (inhibitor) vs, response—variable slope (Four parameters) model.

HPAC cells (KRAS G12D) = experiment: 3D Cell viability assay in HPAC cells (Biological Example 6); format: cell-based; settings: Homo sapiens, HPAC, 72 h, HPAC (KRAS G12D) spheroids
Procedure: as §2, §3, §4, §5, §6, §7

H358 cells (KRAS G12C) = experiment: 3D Cell viability assay in H358 cells (Biological Example 6); format: cell-based; settings: Homo sapiens, NCI-H358; H358 (KRAS G12C) spheroids, 72 hours
Procedure: as §2, §3, §4, §5, §6, §7

HCT116 cells (KRAS G13D) = experiment: 3D Cell viability assay in HCT116 cells (Biological Example 6); format: cell-based; settings: Homo sapiens, HCT-116; HCT116 (KRAS G13D) spheroids, 72 hours
Procedure: as §2, §3, §4, §5, §6, §7

H1573 cells (KRAS G12A) = experiment: 3D Cell viability assay in H1573 cells (Biological Example 6); format: cell-based; settings: Homo sapiens, NCI-H1573; H1573 (KRAS G12A) spheroids, 72 hours
Procedure: as §2, §3, §4, §5, §6, §7

A549 cells (KRAS G12S) = experiment: 3D Cell viability assay in A549 cells (Biological Example 6); format: cell-based; settings: Homo sapiens; A549 (KRAS G12S) spheroids, 72 hours
Procedure: as §2, §3, §4, §5, §6, §7

HT1080 cells (NRAS) = experiment: 3D Cell viability assay in HT1080 cells (Biological Example 6); format: cell-based; settings: Homo sapiens, HT-1080; HT1080 (NRAS) spheroids, 72 hours
Procedure: as §2, §3, §4, §5, §6, §7

[5] = target: T5, Avi-KRAS G12D (2-169) GTP/RAF1 RBD-3xFLAG (51-131) (Homo sapiens, UniProt P01116, G12D); experiment: Raf1-KRAS G12D-GTP disruption HTRF assay (Biological Example 3); format: binding; settings: KRAS G12D, GTP-loaded
T5 construct: Avi-KRAS G12D (2-169)
T5 sequence (P01116 2-169 isoform P01116-2 G12D): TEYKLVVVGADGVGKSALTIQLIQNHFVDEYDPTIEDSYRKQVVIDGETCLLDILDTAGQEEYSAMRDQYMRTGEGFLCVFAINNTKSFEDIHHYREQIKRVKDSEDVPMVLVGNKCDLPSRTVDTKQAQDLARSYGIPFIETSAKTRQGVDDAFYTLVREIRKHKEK
Outline: (§8)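 50 nM Avi-KRAS (2-169) GTP/RAF1 RBD complex; 75 nM RBD-Avi; pH 7.5 Tris buffer, 10% DMSO; cpd 30 μM top, 3x, 10 pts; 1 h RT, 700 rpm; HTRF, % of DMSO.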

[6] = target: T6, Avi-KRAS G12C (2-169) GTP/RAF1 RBD-3xFLAG (51-131) (Homo sapiens, UniProt P01116, G12C); experiment: Raf1-KRAS G12C-GTP disruption HTRF assay (Biological Example 3); format: binding; settings: KRAS G12C, GTP-loaded
T6 construct: Avi-KRAS G12C (2-169)
T6 sequence (P01116 2-169 isoform P01116-2 G12C): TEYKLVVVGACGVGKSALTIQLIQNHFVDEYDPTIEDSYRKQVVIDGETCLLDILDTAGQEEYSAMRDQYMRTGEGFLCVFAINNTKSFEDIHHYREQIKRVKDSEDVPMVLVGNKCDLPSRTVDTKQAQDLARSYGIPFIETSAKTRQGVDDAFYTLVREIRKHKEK
Outline: as §8

[7] = target: T7, Avi-KRAS G12V (2-169) GTP/RAF1 RBD-3xFLAG (51-131) (Homo sapiens, UniProt P01116, G12V); experiment: Raf1-KRAS G12V-GTP disruption HTRF assay (Biological Example 3); format: binding; settings: KRAS G12V, GTP-loaded
T7 construct: Avi-KRAS G12V (2-169)
T7 sequence (P01116 2-169 isoform P01116-2 G12V): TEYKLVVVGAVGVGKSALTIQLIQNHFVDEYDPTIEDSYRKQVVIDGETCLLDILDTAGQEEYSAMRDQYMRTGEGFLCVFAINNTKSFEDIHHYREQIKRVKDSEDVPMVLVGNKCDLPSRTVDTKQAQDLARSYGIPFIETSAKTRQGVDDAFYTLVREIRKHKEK
Outline: as §8

[8] = target: T8, Avi-KRAS WT (2-169) GTP/RAF1 RBD-3xFLAG (51-131) (Homo sapiens, UniProt P01116); experiment: Raf1-KRAS WT-GTP disruption HTRF assay (Biological Example 3); format: binding; settings: KRAS WT, GTP-loaded
T8 construct: Avi-KRAS WT (2-169)
T8 sequence (P01116 2-169 isoform P01116-2): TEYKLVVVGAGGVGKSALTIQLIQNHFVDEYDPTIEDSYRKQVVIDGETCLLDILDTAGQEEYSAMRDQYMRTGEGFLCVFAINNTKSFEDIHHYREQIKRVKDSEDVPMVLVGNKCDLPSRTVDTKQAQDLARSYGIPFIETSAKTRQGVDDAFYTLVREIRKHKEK
Outline: as §8

SW620 cells (KRAS G12V) = experiment: Cell-based pERK HTRF assay in SW620 cell (Biological Example 4); settings: Homo sapiens, SW-620, SW620 (KRAS G12V) cells
Outline: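 SW620 (KRAS G12V) cells seeded at 3×10^4/well in RPMI, 10% FBS, then treated next day for 4 h with a 9-point half-log series from 1 μM top (0.25% DMSO). Lysates analyzed for pERK by HTRF (Eu cryptate/d2 antibodies, 4–24 h at room temperature), excitation 320 nm, emission 615 nm.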

T1 sequence (P01116 1-169 isoform P01116-2 G12D): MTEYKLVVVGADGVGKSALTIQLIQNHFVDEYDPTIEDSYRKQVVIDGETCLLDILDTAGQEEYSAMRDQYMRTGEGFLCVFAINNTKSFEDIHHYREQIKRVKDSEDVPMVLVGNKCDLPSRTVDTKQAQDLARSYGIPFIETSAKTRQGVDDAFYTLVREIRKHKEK

SMILES | IC50 [1] [nM] | IC50 [2] [nM] | IC50 [3] [nM] | IC50 [4] [nM] | IC50 (GP2d cells (KRAS G12D); pERK HTRF) [nM] | IC50 (SW1900 cells (KRAS G12D)) [nM] | IC50 (H358 cells (KRAS G12C)) [nM] | IC50 (HCT116 cells (KRAS G13D)) [nM] | IC50 (H1573 cells (KRAS G12A)) [nM] | IC50 (A549 cells (KRAS G12S)) [nM] | IC50 (HT1080 cells (NRAS)) [nM] | IC50 (GP2d cells (KRAS G12D)) [nM] | IC50 [5] [nM] | IC50 [6] [nM] | IC50 [7] [nM] | IC50 [8] [nM] | IC50 (SW620 cells (KRAS G12V)) [nM] | IC50 (HPAC cells (KRAS G12D)) [nM]
CN(C)c1nc(OC[C@@]23CCCN2C[C@H](F)C3)nc2c(F)c(-c3ccc(F)c4sc(N)c(C#N)c34)c(C(F)(F)F)cc12 [Compound 153] | < 100 | 100 to 1000 | 100 to 1000 | 100 to 1000 | < 100 | 100 to 1000 | ≤ 100 | 100 to 1000 | 100 to 1000 | ≤ 100 | > 1000 |  |  |  |  |  |  | 100 to 1000
CN(Cc1ccccn1)c1nc(OC[C@@]23CCCN2C[C@H](F)C3)nc2c(F)c(-c3ccc(F)c4sc(N)c(C#N)c34)c(C(F)(F)F)cc12 (atropisomer, axis not shown) [Compound 865] |  |  |  |  |  |  |  |  |  |  |  | < 100 | 100 to 1000 | 1000 to 10000 | 1000 to 10000 | 1000 to 10000 | < 100 | 
CCN(c1nc(OC[C@@]23CCCN2C[C@H](F)C3)nc2c(F)c(-c3ccc(F)c4sc(N)c(C#N)c34)c(C(F)(F)F)cc12)[C@H]1CC[C@@H](C(=O)N(C)C)C1 (atropisomer, axis not shown) [Compound 661] |  |  |  |  |  |  |  |  |  |  |  | < 100 | 100 to 1000 | 1000 to 10000 | 1000 to 10000 | 100 to 1000 | < 100 | 
CCN(c1nc(OC[C@@]23CCCN2C[C@H](F)C3)nc2c(F)c(-c3ccc(F)c4sc(N)c(C#N)c34)c(C(F)(F)F)cc12)[C@H]1C[C@H](COC)N(C(=O)C2C[C@@H]2F)C1 (stereo partly drawn) [Compound 870] |  |  |  |  |  |  |  |  |  |  |  | < 100 | 100 to 1000 | 100 to 1000 | 100 to 1000 | 100 to 1000 | < 100 | 

More lines, main results first:

IC50 [1] [nM] | IC50 [2] [nM] | IC50 [3] [nM] | IC50 [4] [nM] | IC50 (GP2d cells (KRAS G12D); pERK HTRF) [nM] | IC50 (SW1900 cells (KRAS G12D)) [nM] | IC50 (H358 cells (KRAS G12C)) [nM] | IC50 (HCT116 cells (KRAS G13D)) [nM] | IC50 (H1573 cells (KRAS G12A)) [nM] | IC50 (A549 cells (KRAS G12S)) [nM] | IC50 (HT1080 cells (NRAS)) [nM] | IC50 (GP2d cells (KRAS G12D)) [nM] | IC50 [5] [nM] | IC50 [6] [nM] | IC50 [7] [nM] | IC50 [8] [nM] | IC50 (SW620 cells (KRAS G12V)) [nM] | SMILES | IC50 (HPAC cells (KRAS G12D)) [nM]
 |  |  |  |  |  |  |  |  |  |  | 100 to 1000 | > 10000 | > 10000 | > 10000 | > 10000 | 100 to 1000 | N#Cc1c(N)sc2c(F)ccc(-c3c(C(F)(F)F)cc4c(N5CCCC(c6cccnc6)C5)nc(OC[C@@]56CCCN5C[C@H](F)C6)nc4c3F)c12 (stereo partly drawn) [Compound 944] | 
 |  |  |  |  |  |  |  |  |  |  | < 100 | 100 to 1000 | 100 to 1000 | 100 to 1000 | 100 to 1000 | < 100 | CN(Cc1cnoc1)c1nc(OC[C@@]23CCCN2C[C@H](F)C3)nc2c(F)c(-c3ccc(F)c4sc(N)c(C#N)c34)c(C(F)(F)F)cc12 (atropisomer, axis not shown) [Compound 935] | 
 |  |  |  |  |  |  |  |  |  |  | < 100 | 100 to 1000 | 100 to 1000 | 100 to 1000 | 1000 to 10000 | < 100 | CCN(c1nc(OC[C@@]23CCCN2C[C@H](F)C3)nc2c(F)c(-c3ccc(F)c4sc(N)c(C#N)c34)c(C(F)(F)F)cc12)[C@H]1C[C@@H](C)N(C(=O)OC2CC(OC)C2)C1 (stereo partly drawn) [Compound 895] | 
 |  |  |  |  |  |  |  |  |  |  | < 100 | 100 to 1000 | 100 to 1000 | 100 to 1000 | 100 to 1000 | < 100 | CCN(c1nc(OC[C@@]23CCCN2C[C@H](F)C3)nc2c(F)c(-c3ccc(F)c4sc(N)c(C#N)c34)c(C(F)(F)F)cc12)[C@H]1C[C@H](C)N(C(=O)C2CC2(F)F)C1 (stereo partly drawn) [Compound 881] | 
